US8263636B2, “Dual alanyl aminopeptidase and dipeptidyl peptidase iv inhibitors for functionally influencing different cells and for treating immunological inflammatory, neuronal and other diseases” (IMTM GmbH, priority 2003, dated 2012)
Read-outs that look alike come from different tables or passages of the source.

Legend:
[1] = target: alanyl aminopeptidase (APN) (Homo sapiens, UniProt P15144); assay: Inhibition of alanyl aminopeptidase enzymatic activity, fluorogenic substrate (Ala)2-rhodamine; assay type: biochemical
Method: (§1) The inhibition characteristics measured are referred to as IC-50 values or ID50 values (the lafter marked with “*”) for both enzymes. The enzymatic activity was determined by means of the fluorogenic substrates/products (Ala-Pro)2-rhodamine and (Ala)2-rhodamine.

[2] = target: dipeptidyl peptidase IV (DPIV) (Homo sapiens, UniProt P27487); assay: Inhibition of dipeptidyl peptidase IV enzymatic activity, fluorogenic substrate (Ala-Pro)2-rhodamine; assay type: biochemical
Method: as §1

[3] = system: dextran sulfate-induced colitis; assay: Dextran sulfate-induced colitis of mice; assay type: in vivo, female Balb/c mice; details: 10 μg single inhibitor i.p. on three successive days from day 5; day 7; insignificant; FIG. 2
[4] = system: ovalbumine-induced asthma bronchiale; assay: Ovalbumine-induced asthma bronchiale of mice; assay type: in vivo, female Balb/c mice; details: i.p. 0.1 mg of each inhibitor, days 28-35; ovalbumine challenge day 35; FIG. 3A
Method: Female Balb/c mice were sensitized for the antigen ovalbumine capable of inducing asthma bronchiale by an intreperitoneal administration of 10 μg ovalbumine on the days 0, 14 and 21. On day 27/28, the animals received a boostering dose of ovalbumine by inhalation [vD3]. After an intreperitoneal administration of the peptidase inhibitors on the days 28-35, there was effected an intranasal ovalbumine challenge on day 35, as well as a check of the allergic premature reaction via the pulmonal function. There were measured: the average expiratory flux (EF50), the tidal volume, the respiration rate and the minute volume as well as the number of eosinophilic granulocytes in the bronchoalveolar lavage. 8 to 10 animals were used per experimental group. By way of example, in FIG. 3A, there is summarized the effect of the peptidase inhibitors on the reduction of the EF50 value.

[5] = second value of cell DPIV/APN, marked * = ID50 value, read-out: ID50 APN (marked with *)
[6] = first value of cell DPIV/APN, unmarked = IC-50, read-out: IC50 DPIV
[7] = second value of cell DPIV/APN, unmarked = IC-50, read-out: IC50 APN
[8] = Table 8, first value of cell, unmarked = IC-50, read-out: IC50 DPIV

dipeptidyl peptidase IV (DPIV), sequence (P27487 whole entry, species assumed): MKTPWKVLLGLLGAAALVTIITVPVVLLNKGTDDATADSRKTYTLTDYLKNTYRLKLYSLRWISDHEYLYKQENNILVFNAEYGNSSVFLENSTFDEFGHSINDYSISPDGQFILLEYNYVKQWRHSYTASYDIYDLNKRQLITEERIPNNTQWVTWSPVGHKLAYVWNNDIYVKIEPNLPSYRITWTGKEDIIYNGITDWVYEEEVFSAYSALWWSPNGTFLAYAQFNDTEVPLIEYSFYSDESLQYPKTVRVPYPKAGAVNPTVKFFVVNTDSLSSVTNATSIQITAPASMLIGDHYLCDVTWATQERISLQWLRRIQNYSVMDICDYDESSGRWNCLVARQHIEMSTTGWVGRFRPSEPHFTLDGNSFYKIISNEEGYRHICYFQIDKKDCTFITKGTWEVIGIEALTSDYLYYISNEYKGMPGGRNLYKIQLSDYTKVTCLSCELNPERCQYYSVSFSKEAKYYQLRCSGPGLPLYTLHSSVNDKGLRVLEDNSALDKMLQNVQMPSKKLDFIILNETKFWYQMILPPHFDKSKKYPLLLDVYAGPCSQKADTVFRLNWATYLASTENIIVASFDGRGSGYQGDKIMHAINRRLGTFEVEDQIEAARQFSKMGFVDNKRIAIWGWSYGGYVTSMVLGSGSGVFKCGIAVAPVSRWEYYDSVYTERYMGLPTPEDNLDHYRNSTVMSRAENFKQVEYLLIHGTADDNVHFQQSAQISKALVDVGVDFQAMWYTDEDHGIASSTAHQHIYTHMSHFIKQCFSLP
alanyl aminopeptidase (APN), sequence (P15144 whole entry, species assumed): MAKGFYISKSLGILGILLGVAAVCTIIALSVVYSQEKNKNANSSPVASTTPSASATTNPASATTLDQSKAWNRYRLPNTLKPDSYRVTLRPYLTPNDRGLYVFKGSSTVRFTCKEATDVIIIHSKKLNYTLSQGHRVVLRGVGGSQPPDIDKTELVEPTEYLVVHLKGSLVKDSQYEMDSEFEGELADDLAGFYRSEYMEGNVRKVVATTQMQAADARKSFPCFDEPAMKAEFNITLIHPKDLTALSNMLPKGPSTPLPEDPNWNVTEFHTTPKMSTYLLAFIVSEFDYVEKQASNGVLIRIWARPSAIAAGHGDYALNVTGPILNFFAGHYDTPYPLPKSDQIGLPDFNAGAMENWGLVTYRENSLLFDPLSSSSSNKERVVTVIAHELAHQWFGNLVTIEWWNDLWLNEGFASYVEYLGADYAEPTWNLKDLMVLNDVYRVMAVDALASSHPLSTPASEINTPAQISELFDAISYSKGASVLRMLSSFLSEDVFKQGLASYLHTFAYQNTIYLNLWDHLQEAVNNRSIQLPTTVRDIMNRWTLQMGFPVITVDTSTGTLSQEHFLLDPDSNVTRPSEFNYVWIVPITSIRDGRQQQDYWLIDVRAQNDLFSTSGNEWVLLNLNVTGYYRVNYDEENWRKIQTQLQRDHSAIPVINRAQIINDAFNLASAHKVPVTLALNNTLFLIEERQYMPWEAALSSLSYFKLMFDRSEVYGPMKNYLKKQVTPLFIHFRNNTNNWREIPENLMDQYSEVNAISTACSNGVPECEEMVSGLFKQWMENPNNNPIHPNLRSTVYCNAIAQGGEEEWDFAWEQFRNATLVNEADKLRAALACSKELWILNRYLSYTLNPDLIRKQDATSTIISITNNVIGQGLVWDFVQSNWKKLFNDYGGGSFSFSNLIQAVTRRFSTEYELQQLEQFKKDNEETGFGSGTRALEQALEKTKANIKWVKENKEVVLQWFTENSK

Structure (SMILES): COc1cc(Br)c(OCC(=O)N/N=C/c2cc(Br)c(O)c(O)c2Br)c(Br)c1 [Compound C2.003]
- IC50 [1, 5]: 5.4 µM

Structure (SMILES): COc1ccc(OCC(=O)N/N=C/c2cc(Br)c(O)c(O)c2Br)c(Br)c1 [Compound C2.005]
- IC50 [2, 6]: 40.8 µM

Structure (SMILES): Cc1ccc(C)n1-c1cccc(C(=O)N/N=C/c2cc(Br)c(O)c(Br)c2)c1 [Compound C2.007]
- IC50 ([2]; read-out: IC50 DPIV): 41.1 µM

Structure (SMILES): Cc1ccc(/C=N/NC(=O)c2cccc(I)c2)o1 [Compound C2.010]
- IC50 ([2]; read-out: IC50 DPIV): 57.4 µM

Structure (SMILES): COc1ccc(C(=O)N/N=C/c2cc(O)c(O)c(Br)c2Br)cc1 [Compound C2.012]
- IC50 [1, 5]: 33.6 µM

Structure (SMILES): COc1ccc(C(=O)N/N=C\c2cc(Br)c(O)c(O)c2Br)cc1 [Compound C2.013]
- IC50 ([2]; first value of cell DPIV/APN, marked * = ID50 value, read-out: ID50 DPIV (marked with *)): 94 µM

Structure (SMILES): Cc1[nH]c2ccccc2c1C(c1cc(Cl)ccc1O)N1CCOCC1 (centres unmarked) [Compound C4.002]
- IC50 [1, 7]: 11.8 µM

Structure (SMILES): O=C(N/N=C/c1cc(Br)cc(Br)c1OC(=O)c1ccccc1)/C(=C/c1ccc2c(c1)OCO2)NC(=O)c1ccccc1 [Compound C4.006]
- IC50 [2, 6]: 38.6 µM

Structure (SMILES): CCOC(=O)C1CCN(C(c2ccccn2)c2c(C)[nH]c3ccccc23)CC1 (centres unmarked) [Compound C4.007]
- IC50 [2, 6]: 32 µM
- IC50 [1, 7]: 32 µM

Structure (SMILES): Cc1[nH]c2ccccc2c1C(c1ccccn1)N1CCN(c2ccccn2)CC1 (centres unmarked) [Compound C4.008]
- IC50 [2, 6]: 45 µM
- IC50 [1, 7]: 28 µM

Structure (SMILES): Cc1[nH]c2ccccc2c1C(c1ccccn1)N1CCN(c2ccc(F)cc2)CC1 (centres unmarked) [Compound C4.009]
- IC50 [2, 6]: 96 µM
- IC50 [1, 7]: 76 µM

Structure (SMILES): Cc1[nH]c2ccccc2c1C(c1ccccn1)N1CCC(C(N)=O)CC1 (centres unmarked) [Compound C4.010]
- IC50 [2, 6]: 54 µM
- IC50 [1, 7]: 42 µM

Structure (SMILES): Cc1[nH]c2ccccc2c1C(c1ccccn1)N1CCCC1 (centres unmarked) [Compound C4.011]
- IC50 [2, 6]: 170 µM

Structure (SMILES): Cc1[nH]c2ccccc2c1C(c1ccccn1)N1CCOCC1 (centres unmarked) [Compound C4.012]
- IC50 [2, 6]: 59 µM
- IC50 [1, 7]: 36 µM

Structure (SMILES): Cc1[nH]c2ccccc2c1C(c1ccccn1)N1CCCCC1 (centres unmarked) [Compound C4.013]
- IC50 [2, 6]: 74 µM
- IC50 [1, 7]: 78 µM

Structure (SMILES): Cc1[nH]c2ccccc2c1C(c1cccs1)N1CCC(C(N)=O)CC1 (centres unmarked) [Compound C4.014]
- IC50 [2, 6]: 61 µM
- IC50 [1, 7]: 48 µM

Structure (SMILES): CCOC(=O)N1CCN(C(c2cccs2)c2c(C)[nH]c3ccccc23)CC1 (centres unmarked) [Compound C4.015]
- IC50 [2, 6]: 49 µM
- IC50 [1, 7]: 25 µM

Structure (SMILES): COc1ccc(C(c2c(C)[nH]c3ccccc23)N2CCCC2)cc1 (centres unmarked) [Compound C4.016]
- IC50 [2, 6]: 49 µM
- IC50 [1, 7]: 30 µM

Structure (SMILES): Cc1[nH]c2ccccc2c1C(c1cccs1)N1CCCCC1 (centres unmarked) [Compound C4.017]
- IC50 [2, 6]: 67 µM
- IC50 [1, 7]: 31 µM

Structure (SMILES): Cc1[nH]c2ccccc2c1C(c1cccs1)N1CCOCC1 (centres unmarked) [Compound C4.018]
- IC50 [2, 6]: 61 µM
- IC50 [1, 7]: 32 µM

Structure (SMILES): Cc1[nH]c2ccccc2c1C(c1cccs1)N1CCCC1 (centres unmarked) [Compound C4.019]
- IC50 [2, 6]: 57 µM
- IC50 [1, 7]: 35 µM

Structure (SMILES): CCOC(=O)C(NC(=O)c1cccc(Cl)c1)(Nc1ccccc1OC)C(F)(F)F (centres unmarked) [Compound C7.001]
- IC50 [2, 6]: 18.9 µM
- IC50 [1, 7]: 21.7 µM

Structure (SMILES): CCOC(=O)C(NC(=O)c1ccc(OC)cc1)(N1CCCC1=O)C(F)(F)F (centres unmarked) [Compound C7.002]
- IC50 [2, 6]: 25.4 µM

Structure (SMILES): CCOC(=O)C(NC(=O)c1ccc(OC)cc1)(N1CCOCC1)C(F)(F)F (centres unmarked) [Compound C7.003]
- IC50 [1, 7]: 90.2 µM

Structure (SMILES): CCOC(=O)C(NC(=O)c1ccccc1)(N1CCOCC1)C(F)(F)F (centres unmarked) [Compound C7.004]
- IC50 [1, 5]: 186 µM

Structure (SMILES): CN(C)CCNc1nc2c(c(=O)n(C)c(=O)n2C)n1Cc1ccccc1Cl [Compound C8.002]
- IC50 APN ([1]; Table 8, second value of cell, unmarked = IC-50): 7.5/Inactive

Structure (SMILES): COC(=O)C1=C(N)N2C(=O)CSC2=C(C(=O)OC(C)C)C1 [Compound C8.003]
- IC50 [2, 8]: 10.8 µM

Structure (SMILES): C=CCN1C(=O)C(C#N)=C(C)/C(=C\c2ccc(-c3cc(C)c(C)cc3[N+](=O)[O-])o2)C1=O [Compound C8.012]
- IC50 [2, 8]: 65.4 µM

Structure (SMILES): CCOC(=O)C(NC(=O)c1ccc(OC)cc1)(N1CCOCC1)C(F)(F)F (centres unmarked) [Compound C8.017]
- IC50 ([1]; Table 8, second value of cell, unmarked = IC-50, read-out: IC50 APN): 90.2 µM

Structure (SMILES): O=C(N/C(=C\c1ccco1)C(=O)N1CCCC(CO)C1)c1ccccc1 (centres unmarked) [Compound C8.020]
- IC50 ([2]; Table 8, first value of cell, marked * = ID50 value, read-out: ID50 DPIV (marked with *)): 152 µM

Structure (SMILES): COc1cc(C)[n+](OC(=O)N(C)C)c(C)c1 [Compound C8.021]
- IC50 [2]: 119 µM

Structure (SMILES): O=C(N/C(=C\c1ccco1)C(=O)N1CCCC(CO)C1)c1ccccc1 (centres unmarked) [Compound C9.006]
- IC50 [2, 6]: 152 µM

Structure (SMILES): COC(=O)C1=C(N)N2C(=O)CSC2=C(C(=O)OC(C)C)C1 [Compound C10.003]
- IC50 [2, 6]: 10.8 µM

Structure (SMILES): COc1ccccc1N1C(=O)c2ccc(Oc3ccc(NC(=O)CCS(=O)(=O)c4ccc(C)cc4)cc3)cc2C1=O [Compound C10.015]
- IC50 [2, 6]: 99.4 µM
- IC50 [1, 7]: 26.7 µM

Structure (SMILES): COc1ccc(N2C(=O)c3ccc(Oc4ccc(N5C(=O)c6ccc(C(=O)O)cc6C5=O)cc4)cc3C2=O)cc1 [Compound C12.001]
- IC50 [2, 6]: 20.6 µM
- IC50 [1, 7]: 14.8 µM

Structure (SMILES): COC(=O)C1=C(N)N2C(=O)CSC2=C(C(=O)OC(C)C)C1 [Compound C16.001]
- IC50 [2, 6]: 10.8 µM
- IC50 [1, 7]: 6.9 µM

Structure (SMILES): CC(C)OC(=O)C1=C(N)N2C(=O)CSC2=C(C(=O)OC(C)C)C1 [Compound C16.007]
- IC50 [2, 6]: 79 µM
- IC50 [1, 7]: 75 µM

Structure (SMILES): CCOC(=O)C1=c2s/c(=C\c3cccs3)c(=O)n2C(N)=C(S(=O)(=O)c2ccccc2)C1c1cccs1 (centres unmarked) [Compound C16.008]
- IC50 [2, 6]: 139 µM

Structure (SMILES): COC(=O)C1=c2s/c(=C\c3cccc(OC)c3)c(=O)n2C(N)=C(S(=O)(=O)c2ccccc2)C1c1cccc(OC)c1 (centres unmarked) [Compound C16.009]
- IC50 [2, 6]: 140 µM

Structure (SMILES): COC(=O)C1=c2s/c(=C\c3ccco3)c(=O)n2C(N)=C(S(=O)(=O)c2ccccc2)C1c1ccco1 (centres unmarked) [Compound C16.010]
- IC50 [1, 7]: 100 µM

Structure (SMILES): COC(=O)C1=c2s/c(=C\c3ccc(C)cc3)c(=O)n2C(N)=C(S(=O)(=O)c2ccccc2)C1c1ccc(C)cc1 (centres unmarked) [Compound C16.011]
- IC50 [2, 6]: 115 µM

Structure (SMILES): N[C@@H](CCCCNC(=O)OCc1ccc([N+](=O)[O-])cc1)C(=O)N1CCCC1 [Lys[Z(NO2)] pyrrolidide]
- reduction of the heaviness of the disease (score) [3]: −12.3%
- effect on the reduction of the average expiratory flux (EF50) [4]: showed a therapeutic effect

Structure (SMILES): CCCCC[C@H](CC(=O)NO)C(=O)N[C@H](C(=O)N1CCC[C@H]1CO)C(C)C [actinonine]
- reduction of the heaviness of the disease (score) [3]: −16.5%
- effect on the reduction of the average expiratory flux (EF50) [4]: showed a therapeutic effect
